# Test results published in patent US9938261B2, “Heterocyclic compounds and methods of use thereof” (AMBIT BIOSCIENCES CORPORATION, priority 2011, dated 2018).
# pIC50, pKd: −log10 of the molar value. Counter-ions that a name gives are not always drawn. Like-named read-outs stand apart in the source and are kept apart here.
# Columns and labels:
# M-NFS-60 cells = assay: M-NFS-60 cell proliferation assay (Alamar Blue); type: cell-based, mouse; conditions: Mus musculus, read-out: CSF1R M-NFS-60 CTB:IC50
# How it was run: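 Mouse M-NFS-60 cells growing on 20 ng/mL M-CSF in RPMI/10% FBS were exposed to compounds (9 half-log concentrations, 0.5% DMSO) for 72 h at 37 °C. Viability read by Alamar Blue fluorescence (ex 560/em 590 nm, 3 h). IC50 = 50% proliferation inhibition versus control, mean of duplicates.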
# PDGFRβ = biological target: T1, PDGFRβ (Homo sapiens, UniProt P09619); assay: Competition binding assay, PDGFRβ Kd
# T1 construct: made in house
# How it was run: (§1)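 Phage-fused or HEK-293/DNA-tagged kinase + ligand-coated streptavidin beads + compound, 1 h RT with shaking. Wash, elute with free ligand 30 min RT, qPCR of eluted kinase. Kd: 11-point 3-fold series.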
# [1] = biological target: kinase panel containing either 386 or 392 distinct kinases; assay: Kinase selectivity score S10 from competition binding panel
# How it was run: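 Compounds at 10 μM competed against immobilised affinity ligands for T7 phage-fused or HEK-293-expressed DNA-tagged kinases, 1 h at room temperature; bound kinase eluted and quantified by qPCR. S10 = fraction of distinct non-mutant kinases with percent of DMSO control below 10.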
# CSF1R = CSF1R (Homo sapiens, UniProt P07333); assay: Competition binding assay, CSF1R Kd; set-up: made in house
# How it was run: as §1
# KIT = biological target: T2, KIT (Homo sapiens, UniProt P10721); assay: Competition binding assay, KIT Kd
# T2 construct: made in house
# How it was run: as §1
# FLT3 = biological target: T3, FLT3 (Homo sapiens, UniProt P36888); assay: Competition binding assay, FLT3 Kd
# T3 construct: made in house
# T3 sequence (P36888 27-993): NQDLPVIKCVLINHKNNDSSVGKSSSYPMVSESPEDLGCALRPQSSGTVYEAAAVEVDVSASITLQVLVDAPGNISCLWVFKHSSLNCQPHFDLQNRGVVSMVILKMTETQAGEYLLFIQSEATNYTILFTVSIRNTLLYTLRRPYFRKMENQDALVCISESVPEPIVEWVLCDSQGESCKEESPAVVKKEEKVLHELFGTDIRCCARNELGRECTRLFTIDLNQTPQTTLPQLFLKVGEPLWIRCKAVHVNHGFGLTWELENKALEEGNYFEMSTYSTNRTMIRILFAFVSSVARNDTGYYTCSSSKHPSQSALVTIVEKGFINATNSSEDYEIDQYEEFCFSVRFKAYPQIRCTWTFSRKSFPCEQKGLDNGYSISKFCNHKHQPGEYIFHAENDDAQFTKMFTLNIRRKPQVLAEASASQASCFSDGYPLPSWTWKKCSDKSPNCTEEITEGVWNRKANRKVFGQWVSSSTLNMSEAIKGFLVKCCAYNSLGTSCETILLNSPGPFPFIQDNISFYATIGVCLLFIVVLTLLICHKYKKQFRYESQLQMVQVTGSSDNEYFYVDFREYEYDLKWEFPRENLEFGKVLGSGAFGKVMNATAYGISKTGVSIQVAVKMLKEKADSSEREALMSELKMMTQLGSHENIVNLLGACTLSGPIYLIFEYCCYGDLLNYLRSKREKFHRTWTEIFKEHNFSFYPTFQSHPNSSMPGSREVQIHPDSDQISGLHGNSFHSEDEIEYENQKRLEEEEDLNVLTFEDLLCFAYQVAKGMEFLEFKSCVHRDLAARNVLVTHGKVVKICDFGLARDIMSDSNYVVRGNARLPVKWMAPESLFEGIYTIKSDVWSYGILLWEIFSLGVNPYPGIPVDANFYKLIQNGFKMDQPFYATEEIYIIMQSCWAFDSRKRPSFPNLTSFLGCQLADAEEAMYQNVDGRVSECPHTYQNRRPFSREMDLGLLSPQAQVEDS
# How it was run: as §1
# [2] = 10 μM, panel of 386 or 392 distinct kinases
# [3] = 72 hours incubation, M-CSF 20 ng/mL
# [4] = compounds at 10 μM, 386 or 392 distinct kinases
# Chain of CSF1R (P07333 20-972): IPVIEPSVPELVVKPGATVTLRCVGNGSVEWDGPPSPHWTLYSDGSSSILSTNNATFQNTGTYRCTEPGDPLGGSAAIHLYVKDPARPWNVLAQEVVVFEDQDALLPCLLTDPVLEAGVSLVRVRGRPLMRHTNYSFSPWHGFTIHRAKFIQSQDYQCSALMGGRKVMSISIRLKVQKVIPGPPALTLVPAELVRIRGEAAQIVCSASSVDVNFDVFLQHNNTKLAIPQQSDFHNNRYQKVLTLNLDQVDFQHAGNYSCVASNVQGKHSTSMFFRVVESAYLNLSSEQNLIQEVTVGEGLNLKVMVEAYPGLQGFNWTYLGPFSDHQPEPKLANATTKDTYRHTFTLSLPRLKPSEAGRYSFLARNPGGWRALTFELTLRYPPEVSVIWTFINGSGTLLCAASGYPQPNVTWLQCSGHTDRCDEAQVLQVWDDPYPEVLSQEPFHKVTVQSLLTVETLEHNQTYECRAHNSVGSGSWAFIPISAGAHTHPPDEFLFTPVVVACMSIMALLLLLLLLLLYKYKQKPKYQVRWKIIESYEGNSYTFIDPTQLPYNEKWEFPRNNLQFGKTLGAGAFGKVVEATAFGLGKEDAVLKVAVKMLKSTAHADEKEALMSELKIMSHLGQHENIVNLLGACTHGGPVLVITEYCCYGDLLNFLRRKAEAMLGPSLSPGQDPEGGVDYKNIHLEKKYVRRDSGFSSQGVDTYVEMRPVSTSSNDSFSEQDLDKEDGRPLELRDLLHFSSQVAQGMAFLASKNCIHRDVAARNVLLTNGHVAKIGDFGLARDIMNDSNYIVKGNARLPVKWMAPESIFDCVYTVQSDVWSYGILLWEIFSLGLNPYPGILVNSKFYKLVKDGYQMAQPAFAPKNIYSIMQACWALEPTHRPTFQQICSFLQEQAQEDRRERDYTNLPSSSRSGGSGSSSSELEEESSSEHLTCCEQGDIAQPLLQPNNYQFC
# T1 sequence (P09619 33-1106): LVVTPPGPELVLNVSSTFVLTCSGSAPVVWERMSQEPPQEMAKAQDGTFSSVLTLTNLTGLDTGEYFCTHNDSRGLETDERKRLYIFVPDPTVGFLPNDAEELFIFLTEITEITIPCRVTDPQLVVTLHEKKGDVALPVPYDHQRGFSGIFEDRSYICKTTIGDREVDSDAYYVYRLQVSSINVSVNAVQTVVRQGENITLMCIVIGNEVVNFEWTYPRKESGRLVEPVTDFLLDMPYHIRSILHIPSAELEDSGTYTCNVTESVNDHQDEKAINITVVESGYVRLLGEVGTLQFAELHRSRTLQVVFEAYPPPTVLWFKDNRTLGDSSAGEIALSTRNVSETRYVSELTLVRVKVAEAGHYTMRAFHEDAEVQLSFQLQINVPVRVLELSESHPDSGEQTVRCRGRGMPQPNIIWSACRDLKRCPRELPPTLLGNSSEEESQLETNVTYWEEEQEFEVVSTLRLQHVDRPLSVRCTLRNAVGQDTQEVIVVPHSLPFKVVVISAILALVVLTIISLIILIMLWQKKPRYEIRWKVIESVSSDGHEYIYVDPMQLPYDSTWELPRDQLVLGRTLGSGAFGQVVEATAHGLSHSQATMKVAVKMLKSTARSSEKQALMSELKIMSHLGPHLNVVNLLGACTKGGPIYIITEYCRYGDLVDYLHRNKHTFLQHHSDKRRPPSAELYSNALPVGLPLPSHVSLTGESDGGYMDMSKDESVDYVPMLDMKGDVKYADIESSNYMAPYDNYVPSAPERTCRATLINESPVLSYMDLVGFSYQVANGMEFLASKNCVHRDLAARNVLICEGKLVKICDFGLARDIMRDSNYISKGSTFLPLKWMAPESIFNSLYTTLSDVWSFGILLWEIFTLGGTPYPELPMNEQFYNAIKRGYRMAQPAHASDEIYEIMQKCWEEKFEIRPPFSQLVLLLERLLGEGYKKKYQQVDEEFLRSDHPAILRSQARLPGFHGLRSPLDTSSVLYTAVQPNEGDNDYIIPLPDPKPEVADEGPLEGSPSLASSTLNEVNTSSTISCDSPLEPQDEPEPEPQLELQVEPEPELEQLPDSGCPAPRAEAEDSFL
# T2 sequence (P10721 26-976): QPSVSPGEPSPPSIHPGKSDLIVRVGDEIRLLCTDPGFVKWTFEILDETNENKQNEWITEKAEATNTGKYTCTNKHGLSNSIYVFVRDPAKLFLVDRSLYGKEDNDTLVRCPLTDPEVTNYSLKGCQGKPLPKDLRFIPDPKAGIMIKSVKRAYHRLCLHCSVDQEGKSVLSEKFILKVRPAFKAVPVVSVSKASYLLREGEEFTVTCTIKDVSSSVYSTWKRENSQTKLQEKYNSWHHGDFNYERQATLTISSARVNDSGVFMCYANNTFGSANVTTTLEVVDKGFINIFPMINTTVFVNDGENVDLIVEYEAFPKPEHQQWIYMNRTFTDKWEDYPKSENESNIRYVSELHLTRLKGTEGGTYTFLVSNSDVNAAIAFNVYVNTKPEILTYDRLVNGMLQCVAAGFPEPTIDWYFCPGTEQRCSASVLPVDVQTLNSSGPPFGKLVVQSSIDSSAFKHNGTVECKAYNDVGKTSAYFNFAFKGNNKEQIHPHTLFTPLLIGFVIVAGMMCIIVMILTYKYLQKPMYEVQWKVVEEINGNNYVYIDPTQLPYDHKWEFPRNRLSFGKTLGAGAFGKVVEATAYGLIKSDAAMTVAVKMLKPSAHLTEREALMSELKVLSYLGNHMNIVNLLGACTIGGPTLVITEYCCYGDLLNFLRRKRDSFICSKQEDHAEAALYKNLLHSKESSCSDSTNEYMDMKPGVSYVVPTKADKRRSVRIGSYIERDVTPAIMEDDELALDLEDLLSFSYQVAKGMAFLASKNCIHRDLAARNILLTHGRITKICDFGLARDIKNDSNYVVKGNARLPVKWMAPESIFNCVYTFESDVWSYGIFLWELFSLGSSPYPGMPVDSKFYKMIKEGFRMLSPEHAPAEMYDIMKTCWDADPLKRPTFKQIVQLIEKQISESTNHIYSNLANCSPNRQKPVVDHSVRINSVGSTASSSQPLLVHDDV
SMILES,pKd (PDGFRβ; competition binding),"Kinase specificity S(10) [1, 2]",pKd (CSF1R; competition binding),pKd (KIT; competition binding),pKd (FLT3; competition binding),pKd (PDGFRβ),"Kinase specificity S(10) [1, 4]",pKd (CSF1R),pKd (KIT),pKd (FLT3),pIC50 (M-NFS-60 cells; M-NFS-60 cell proliferation),pIC50 (M-NFS-60 cells; [3])
"C=CCOc1ccn2c(Cc3ccc4nc(N[C@@H]5CCCC[C@H]5O)sc4c3)cnc2c1 [Example 217, (1R,2R)-2-((6-((7-(allyloxy)imidazo[1,2-a]pyridin-3-yl)methyl)benzo[d]thiazol-2-yl)amino)cyclohexanol]",6.30 to 7.30,A (A≤0.01),7.70 to 8.30,5.70 to 6.30,5.30 to 6.00,–,–,–,–,–,6.40 to 7.30,–
"OC1CCN(c2ccn3c(Cc4ccc5nc(N[C@@H]6CCCC[C@H]6O)sc5c4)cnc3c2)CC1 [Example 199, 1-(3-((2-(((1R,2R)-2-hydroxycyclohexyl)amino)benzo[d]thiazol-6-yl)methyl)imidazo[1,2-a]pyridin-7-yl)piperidin-4-ol]",< 5.70,A (A≤0.01),7.70 to 8.30,< 5.70,< 5.30,–,–,–,–,–,< 5.82,–
"OC[C@H](Nc1nc2ccc(Cn3cnc4cccnc43)cc2s1)C1CCCCC1 [Example 64, (R)-2-((6-((3H-imidazo[4,5-b]pyridin-3-yl)methyl)benzo[d]thiazol-2-yl)amino)-2-cyclohexylethanol]",–,–,–,–,–,≥ 7.30,C (C>0.02),7.70 to 8.30,≥ 7.00,6.00 to 6.70,–,6.40 to 7.30
"COc1cc2ncn(Cc3ccc4nc(NCC5CCCCC5)oc4c3)c2cc1OC [Example 35, N-(cyclohexylmethyl)-6-((5,6-dimethoxy-1H-benzo[d]imidazol-1-yl)methyl)benzo[d]oxazol-2-amine]",–,–,–,–,–,≥ 7.30,C (C>0.02),≥ 8.30,≥ 7.00,≥ 6.70,–,6.40 to 7.30
"COc1cc2ncn(Cc3ccc4nc(N[C@@H]5CCCC[C@H]5O)sc4c3)c2cc1C#N [Example 53, 1-((2-(((1R,2R)-2-hydroxycyclohexyl)amino)benzo[d]thiazol-6-yl)methyl)-5-methoxy-1H-benzo[d]imidazole-6-carbonitrile]",–,–,–,–,–,6.30 to 7.30,B (0.01<B≤0.02),7.70 to 8.30,6.30 to 7.00,5.30 to 6.00,–,≥ 7.30
"CS(=O)(=O)c1ccc2ncn(Cc3ccc4nc(N[C@@H]5CCCC[C@H]5O)sc4c3)c2n1 [Example 106, (1R,2R)-2-((6-((5-(methylsulfonyl)-3H-imidazo[4,5-b]pyridin-3-yl)methyl)benzo[d]thiazol-2-yl)amino)cyclohexanol]",5.70 to 6.30,A (A≤0.01),7.30 to 7.70,5.70 to 6.30,6.00 to 6.70,–,–,–,–,–,< 5.82,–
"N#Cc1cc(F)c2c(c1)ncn2Cc1ccc2nc(N[C@@H]3CCCC[C@H]3O)sc2c1 [Example 206, 7-fluoro-1-((2-(((1R,2R)-2-hydroxycyclohexyl)amino)benzo[d]thiazol-6-yl)methyl)-1H-benzo[d]imidazole-5-carbonitrile]",6.30 to 7.30,A (A≤0.01),7.70 to 8.30,6.30 to 7.00,6.00 to 6.70,–,–,–,–,–,6.40 to 7.30,–
"O[C@@H]1Cc2ccccc2[C@H]1Nc1nc2ccc(Cn3cnc4cccnc43)cc2o1 [Example 57, (1R,2R)-1-((6-((3H-imidazo[4,5-b]pyridin-3-yl)methyl)benzo[d]oxazol-2-yl)amino)-2,3-dihydro-1H-inden-2-ol]",–,–,–,–,–,≥ 7.30,C (C>0.02),≥ 8.30,≥ 7.00,6.00 to 6.70,–,6.40 to 7.30
"Fc1cnc2c(c1)ncn2Cc1ccc2nc(N[C@@H]3CCCC[C@H]3Cl)sc2c1 [Example 198, N-((1R,2R)-2-chlorocyclohexyl)-6-((6-fluoro-3H-imidazo[4,5-b]pyridin-3-yl)methyl)benzo[d]thiazol-2-amine]",≥ 7.30,B (0.01<B≤0.02),≥ 8.30,6.30 to 7.00,5.30 to 6.00,–,–,–,–,–,6.40 to 7.30,–
"O=C1CCCCN1c1ccc2c(c1)ncn2Cc1ccc2nc(N[C@@H]3CCCC[C@H]3O)sc2c1 [Example 210, 1-(1-((2-(((1R,2R)-2-hydroxycyclohexyl)amino)benzo[d]thiazol-6-yl)methyl)-1H-benzo[d]imidazol-5-yl)piperidin-2-one]",5.70 to 6.30,A (A≤0.01),7.30 to 7.70,5.70 to 6.30,< 5.30,–,–,–,–,–,< 5.82,–

# Now from value to compound, other results behind:
pKd (PDGFRβ; competition binding),"Kinase specificity S(10) [1, 2]",pKd (CSF1R; competition binding),pKd (KIT; competition binding),pKd (FLT3; competition binding),pKd (PDGFRβ),"Kinase specificity S(10) [1, 4]",pKd (CSF1R),pKd (KIT),pKd (FLT3),SMILES,pIC50 (M-NFS-60 cells; M-NFS-60 cell proliferation),pIC50 (M-NFS-60 cells; [3])
–,–,–,–,–,≥ 7.30,B (0.01<B≤0.02),≥ 8.30,≥ 7.00,6.00 to 6.70,"CSc1cnc2c(c1)ncn2Cc1ccc2nc(N[C@@H]3CCCC[C@H]3O)sc2c1 [Example 85, (1R,2R)-2-((6-((6-(methylthio)-3H-imidazo[4,5-b]pyridin-3-yl)methyl)benzo[d]thiazol-2-yl)amino)cyclohexanol]",–,≥ 7.30
–,–,–,–,–,< 5.70,A (A≤0.01),< 7.30,< 5.70,< 5.30,"CNC(=O)c1cn(Cc2ccc3nc(N[C@@H]4CCCC[C@H]4O)sc3c2)cn1 [Example 37, 1-((2-(((1R,2R)-2-hydroxycyclohexyl)amino)benzo[d]thiazol-6-yl)methyl)-N-methyl-1H-imidazole-4-carboxamide]",–,< 5.82
–,–,–,–,–,≥ 7.30,B (0.01<B≤0.02),7.70 to 8.30,≥ 7.00,6.00 to 6.70,"CCc1cnc2c(c1)ncn2Cc1ccc2nc(N[C@@H]3CCCC[C@H]3O)sc2c1 [Example 102, (1R,2R)-2-((6-((6-ethyl-3H-imidazo[4,5-b]pyridin-3-yl)methyl)benzo[d]thiazol-2-yl)amino)cyclohexanol]",–,≥ 7.30
–,–,–,–,–,≥ 7.30,C (C>0.02),7.70 to 8.30,≥ 7.00,≥ 6.70,"C#Cc1cnc2c(c1)ncn2Cc1ccc2nc(N[C@@H]3CCCC[C@H]3O)sc2c1 [Example 96, (1R,2R)-2-((6-((6-ethynyl-3H-imidazo[4,5-b]pyridin-3-yl)methyl)benzo[d]thiazol-2-yl)amino)cyclohexanol]",–,≥ 7.30
6.30 to 7.30,A (A≤0.01),7.30 to 7.70,< 5.70,< 5.30,–,–,–,–,–,"Nc1nccn(Cc2ccc3nc(N[C@@H]4CCCC[C@H]4O)sc3c2)c1=O [Example 220, 3-amino-1-((2-(((1R,2R)-2-hydroxycyclohexyl)amino)benzo[d]thiazol-6-yl)methyl)pyrazin-2(1H)-one acetate salt]",< 5.82,–
–,–,–,–,–,6.30 to 7.30,B (0.01<B≤0.02),7.30 to 7.70,5.70 to 6.30,6.00 to 6.70,"CC(=O)Nc1cn(Cc2ccc3nc(N[C@@H]4CCCC[C@H]4O)sc3c2)cn1 [Example 101, N-(1-((2-(((1R,2R)-2-hydroxycyclohexyl)amino)benzo[d]thiazol-6-yl)methyl)-1H-imidazol-4-yl)acetamide]",–,6.40 to 7.30
–,–,–,–,–,≥ 7.30,B (0.01<B≤0.02),7.70 to 8.30,≥ 7.00,6.00 to 6.70,"C=Cc1cnc2c(c1)ncn2Cc1ccc2nc(N[C@@H]3CCCC[C@H]3O)sc2c1 [Example 98, (1R,2R)-2-((6-((6-vinyl-3H-imidazo[4,5-b]pyridin-3-yl)methyl)benzo[d]thiazol-2-yl)amino)cyclohexanol]",–,≥ 7.30
